Test: mn = molality of the nth substance listed, in mol/kg
Settings: 100 kPa, Liquid, Vibrating tube method

N[C@@H](Cc1ccccc1)C(=O)O [L-phenylalanine] + O
mass density [kg/m3]
Settings | 278.65 K | 279.15 K | 279.65 K | 280.15 K | 280.65 K | 281.15 K | 281.65 K | 282.15 K | 282.65 K | 283.15 K
m1 = 0.0036 | 1000.12 | 1000.11 | 1000.09 | 1000.07 | 1000.04 | 1000.02 | 999.986 | 999.952 | 999.913 | 999.87
m1 = 0.011 | 1000.47 | 1000.45 | 1000.43 | 1000.41 | 1000.39 | 1000.36 | 1000.33 | 1000.29 | 1000.25 | 1000.21
m1 = 0.0183 | 1000.81 | 1000.79 | 1000.77 | 1000.75 | 1000.73 | 1000.7 | 1000.66 | 1000.63 | 1000.59 | 1000.54
m1 = 0.033 | 1001.48 | 1001.47 | 1001.45 | 1001.42 | 1001.39 | 1001.36 | 1001.33 | 1001.29 | 1001.25 | 1001.21
m1 = 0.0443 | 1002.05 | 1002.04 | 1002.02 | 1001.99 | 1001.96 | 1001.93 | 1001.9 | 1001.86 | 1001.82 | 1001.77
m1 = 0.0536 | 1002.44 | 1002.42 | 1002.4 | 1002.37 | 1002.35 | 1002.31 | 1002.28 | 1002.24 | 1002.19 | 1002.15
m1 = 0.0623 | 1002.85 | 1002.83 | 1002.81 | 1002.78 | 1002.75 | 1002.72 | 1002.68 | 1002.64 | 1002.6 | 1002.55
m1 = 0.074 | 1003.39 | 1003.37 | 1003.34 | 1003.32 | 1003.28 | 1003.25 | 1003.21 | 1003.17 | 1003.13 | 1003.08
m1 = 0.0855 | 1003.94 | 1003.92 | 1003.89 | 1003.87 | 1003.83 | 1003.8 | 1003.76 | 1003.72 | 1003.67 | 1003.63
m1 = 0.0981 | 1004.54 | 1004.51 | 1004.49 | 1004.46 | 1004.43 | 1004.39 | 1004.35 | 1004.31 | 1004.26 | 1004.21
m1 = 0.1158 | 1005.4 | 1005.38 | 1005.35 | 1005.32 | 1005.28 | 1005.24 | 1005.2 | 1005.16 | 1005.11 | 1005.06
